US3933800A, “New 3-formylrifamycin SV derivatives” (Gruppo Lepetit S.p.A., priority 1971, dated 1976)

Experiments:
[1] = tested on: RNA dependent DNA polymerase of murine sarcoma virus (endogenous) and DNA dependent DNA polymerase activity of purified enzymes; test: inhibition of murine sarcoma virus DNA polymerase (3H-dTTP incorporation); assay type: biochemical; conditions: at a concentration of 2-100 μg/ml or less; 60 min
Experimental: The inhibiting activity of the invention compounds has been tested on RNA dependent DNA polymerase of murine sarcoma virus (endogenous) and DNA dependent DNA polymerase activity of purified enzymes. The inhibition was tested according to the methods described by C. Gurgo et al., Nature, New Biology, 229, 111, 1971.
The effect of different concentrations of drugs on polymerase activity was determined by following 3H-dTTP (tritiated thymine deoxyriboside triphosphate) incorporation into the insoluble fraction. A typical example of the experimental procedures is the following: Isolation of virus and purification of viral polymerase
Virus was isolated and purified from murine sarcoma virus (Moloney isolate) transformed rat cells (78Al cells) and murine sarcoma virus (Harvey isolate) transformed mouse cells (MEH cells) as previously described (Green et al., Proc. Nat. Acad. Sci. USA 67. 385-393, 1970, Rokutanda et al., Nature, 227, 1026-1028, 1970). The virion polymerase was purified 20-40 fold by incubation of purified virus with 0.5% NP-40 (nonidet P-40) in 0.1 M NaCl, 0.01 M Tris buffer (pH 7.6), 0.001 M EDTA for 5 minutes at room temperature and zonal centrifugration in 15-30% sucrose gradients in 10 mM (millimoles) sodium phosphate buffer (pH 7.4), 2.5 mM MgCl2, 10 mM dithiothreitol, and 5% glycerol for 24 hours at 38.000 rpm in a Spinco SW41 rotor. The peak fractions of enzyme activity (13-17) of twenty-two fractions collected, were pooled, and stored at -70°C in 30% glycerol. DNA polymerase assay
Enzyme incubation was performed for 1 hour at 37°C in 100 μl of reaction mixture containing 40 mM Tris buffer (pH 8.0), 5mM dithiothreitol, 30 mM NaCl, 2.5 mM MgCl2, 0.1 mM daTP, dGTP, dCTP, and 10 μCi of ^3 H-dTTP (12-18 Ci/mmole) as described by Green et al., in Proc. Nat. Acad. Sci. US 67, 385-393, 1970. The reaction was terminated by the addition of 150 μ l of 1N perchloric acid. Calf thymus DNA (100 μg) were added as carrier; the radioactive DNA product was processed as described in the two papers mentioned above.
Endogenous RNA dependent DNA polymerase activity was measured after the addition of 0.01% PN-40 to purified virus at the time of assay. The DNA polymerase activity of purified viral polymerase was measured with 2 μg of poly d(A-T) as template and no NP-40. Test for inhibition by rifamycin derivatives
Rifamycin derivatives were dissolved in dimethylsulfoxide (DMSO) at a concentration of 5 mg/ml and stored at 4°C. Inhibition of the endogenous RNA dependent DNA polymerase activity was tested by adding 2 μ l of derivative appropriately diluted in DMSO or 2 μ l of DMSO (control) to the assay mixture prior to addition to disrupted virus which contained 15 to 30 μg of viral protein. Enzyme incubation was performed for 60 minutes at 37°C. Inhibition of purified enzyme was tested by pre-incubation of 2 μl of derivative of DMSO with 30 μl of enzyme (1 to 2 μg protein) for 10 minutes at 37°C; then 70 μ l of substrate mixture were added and the mixture further incubated and processed as described above.

[2] = tested on: polymerase from murine leukemia virus (reverse transcriptase); test: inhibition of polymerase from murine leukemia virus; assay type: biochemical; conditions: endogenous 70S RNA template
Experimental: The inhibiting effect of reverse transcriptase has been confirmed also by test on polymerase from murine leukemia virus. Murine leukemia virus RNA polymerase was prepared from TRITON X 100 disrupted virions as described by Gallo et al., Nature, New Biology, 232, 141 (1971). Virus of both Rauscher and Moloney types were previously purified by banding in the 1.16 g/ml region of a sucrose density gradient after initial low speed centrifugation to remove cellular debris and cushioning on 60% sucrose through 20% sucrose. Final concentration of virus preparation was at 10^11 particles/ml. As template endogenous 70S RNA was used.

leukemic polymerase = test: inhibition of DNA polymerase of human leukemic blood lymphoblasts; assay type: biochemical; conditions: synthetic RNA template (poly rA.rU)
Description: Similar results were found by using tumor cell polymerases of human origin. In this case the inhibiting activity was studied also on normal cells polymerases to characterize a selective effect. Representative rifamycin derivatives of formula I have been evaluated for their effects on […] purified DNA polymerase isolated from (I) human normal (PHA stimulated) blood lymphocytes (2) a lymphoblast cell line (derived from a normal donor) and (3) human leukemic blood lymphoblast. Synthetic and/or native templates were used.
Leukemic lymphoblasts were isolated from the peripheral blood of patients with acute lymphocytic leukemia (ALL) by leukophoresis. The cells were washed and erythrocytes removed by hypotonic lysis. Normal lymphocytes were obtained from the peripheral blood from healthy donors after removal of granulocytes by nylon column chromatography. They were stimulated with phytohemagglutinin (PHA) for 72 hours as described before (Gallo et al., Nature, 228, 927, 1970; Gallo et al. Science, 165, 400, 1968) in order to maximize DNA polymerase activity.
Cellular DNA polymerase were extracted and purified from normal blood (PHA stimulated) lymphocytes, and leukemic blood lymphocytes and 1788 lymphoid cells by homogenization in hypotonic buffer followed by Triton X 100 and/or high salt extraction of the extraylsosomal pellet. After differential centrifugation cellular extracts were further purified by DEAE cellulose, phosphocellulose, and Sephadex G 200 column chromatography. DNA polymerase Assays
DNA polymerase assays were carried out in a final volume of 100 μ l. The assay mixture contained Tris-HCl buffer, pH 8.3, 50 mM; MgAc, 6.0 mM; dithiothretiol, 8.0 mM; NaCl, 60 mM. […]
In these cases reactions were initiated by adding enzyme to the complete reaction mixture which included the inhibitor. […] The products were collected on Millipore filter, washed extensively with 5% TCA and 1 ml. of DMSO-ethanol-0.1 M NaCl mixture (0.5:70;29.5), dried and counted in 2 ml. of BBS3 (Beckman) and 10 ml. of liquifluor (New England Nuclear) in a Packard liquid scintillation counter.

bacteria = conditions: cited from earlier work
[3] = tested on: bacteria which had become resistant to the other rifamycins; conditions: namely rifampicin; cited from earlier work

For `CCCCON=Cc1c2c(O)c3c(O)c(C)c4c(c3c1O)C(=O)C(C)(OC=CC(OC)C(C)C(OC(C)=O)C(C)C(O)C(C)C(O)C(C)C=CC=C(C)C(=O)N2)O4` (stereo not drawn) [Example 4], the “incorporation of 3H-dTTP relative to control tests” value [1] was “less than 10%”.
In the case of `CCCCCON=Cc1c2c(O)c3c(O)c(C)c4c(c3c1O)C(=O)C(C)(OC=CC(OC)C(C)C(OC(C)=O)C(C)C(O)C(C)C(O)C(C)C=CC=C(C)C(=O)N2)O4` (stereo not drawn) [Example 5], the “incorporation of 3H-dTTP relative to control tests” value [1] is reported as “less than 10%”, the “concentration giving inhibition of about 50 percent” value [2] is reported as 10 to 25 µg/mL and the “susceptibility compared with synthetic DNA template” value (leukemic polymerase) is reported as “even more susceptible”.
For `CCCCCCCCON=Cc1c2c(O)c3c(O)c(C)c4c(c3c1O)C(=O)C(C)(OC=CC(OC)C(C)C(OC(C)=O)C(C)C(O)C(C)C(O)C(C)C=CC=C(C)C(=O)N2)O4` (stereo not drawn) [Example 6], the “incorporation of 3H-dTTP relative to control tests” value [1] was “less than 10%”, the “concentration giving inhibition of about 50 percent” value [2] was 10 to 25 µg/mL and the “susceptibility compared with synthetic DNA template” value (leukemic polymerase) was “even more susceptible”.
With `COC1C=COC2(C)Oc3c(C)c(O)c4c(O)c(c(C=NOCCc5ccccc5)c(O)c4c3C2=O)NC(=O)C(C)=CC=CC(C)C(O)C(C)C(O)C(C)C(OC(C)=O)C1C` (stereo not drawn) [Example 13] the “incorporation of 3H-dTTP relative to control tests” value [1] was “less than 10%”.
In the case of `COC1C=COC2(C)Oc3c(C)c(O)c4c(O)c(c(C=NOCCCc5ccccc5)c(O)c4c3C2=O)NC(=O)C(C)=CC=CC(C)C(O)C(C)C(O)C(C)C(OC(C)=O)C1C` (stereo not drawn) [Example 14], the “incorporation of 3H-dTTP relative to control tests” value [1] is reported as “less than 10%”, the “concentration giving inhibition of about 50 percent” value [2] is reported as 10 to 25 µg/mL and the “susceptibility compared with synthetic DNA template” value (leukemic polymerase) is reported as “even more susceptible”.
In the case of `COC1C=COC2(C)Oc3c(C)c(O)c4c(O)c(c(C=NOC(c5ccccc5)c5ccccc5)c(O)c4c3C2=O)NC(=O)C(C)=CC=CC(C)C(O)C(C)C(O)C(C)C(OC(C)=O)C1C` (stereo not drawn) [Example 16], the “incorporation of 3H-dTTP relative to control tests” value [1] is reported as “less than 10%”.
In the case of `CON=Cc1c2c(O)c3c(O)c(C)c4c(c3c1O)C(=O)C(C)(OC=CC(OC)C(C)C(OC(C)=O)C(C)C(O)C(C)C(O)C(C)C=CC=C(C)C(=O)N2)O4` (stereo not drawn) [O-methyl], the antibacterial activity (bacteria) is listed as “good antibacterial activity” and the “effect against resistant bacteria” value [3] is listed as “practically no effect”.
In the case of `COC1C=COC2(C)Oc3c(C)c(O)c4c(O)c(c(C=NOCCN5CCOCC5)c(O)c4c3C2=O)NC(=O)C(C)=CC=CC(C)C(O)C(C)C(O)C(C)C(OC(C)=O)C1C` (stereo not drawn) [O-morpholinoethyl], the antibacterial activity (bacteria) is listed as “good antibacterial activity” and the “effect against resistant bacteria” value [3] is listed as “practically no effect”.
In the case of `COC1C=COC2(C)Oc3c(C)c(O)c4c(O)c(c(C=NO)c(O)c4c3C2=O)NC(=O)C(C)=CC=CC(C)C(O)C(C)C(O)C(C)C(OC(C)=O)C1C` (stereo not drawn) [oxime of 3-formylrifamycin SV], the antibacterial activity (bacteria) is given as “good antibacterial activity” and the “effect against resistant bacteria” value [3] is given as “practically no effect”.
